Test results from patent US20220387410A1, “4-[5-[(rac)-1-[5-(3-Chlorophenyl)-3-isoxazolyl]ethoxy]-4-methyl-4H-1,2,4-triazol-3-yl]pyridine for use in prevention and/or treatment of surmenage in a mammal” (priority 2019, published 2022).
Read-outs that look alike come from different tables or passages of the source. Marks after values point to notes of the source that are not given here.

Key:
[1] = system: Mice; details: p<0.001, cited from earlier work
[2] = system: cat or dog undergoing elective castration or ovariohysterectomy; assay: Recovery after neutering, TT001 added as pre-medication (Example 1); type: in vivo
Procedure: To study recovery after neutering, cage demeanour scoring using a simple descriptive scale was used. The dogs were premedicated with acepromazine and pethidine, intermuscular (i.m.) in a first group, or in a second group TT001 was also added as pre-medication.
(§1) Twenty to forty minutes after pre-medication, the sedation was scored with the SDS (simple descriptive scale). The dogs were induced with propofol. Anesthesia was maintained with isoflurane in oxygen. Intraoperative analgesia was provided with morphine, prior to surgery. At the end of the surgery, group 1 received meloxicam, while group 2 received no additional treatment.
(§2) At the end of the procedure and recovery SDS was scored.

[3] = system: cat or dog undergoing elective castration or ovariohysterectomy; assay: Recovery after neutering, TT001 plus meloxicam vs meloxicam (Example 2); type: in vivo
Procedure: To study recovery after neutering, cage demeanour scoring using a simple descriptive scale was used. The dogs were premedicated with acepromazine and pethidine, i.m. in a first group, and meloxicam orally or in a second group TT001 was also added as pre-medication.
as §1, with “pre-medication” for “pre-medication,”, “continued to receive” for “received”, “continued to receive TT001 as well as meloxicam. No” for “received no”, “treatment was administered.” for “treatment.”
as §2

[4] = system: mouse FST behavior; assay: Forced Swim Test; type: in vivo; details: for Immobility duration: mouse FST, vehicle 112.5 ± 14.10
From the text: TT001 has been used in the Forced Swim Test. _For protocol see Can A., et al., The Mouse Forced Swim Test, J Vis Exp. 2012; (59): 3638.

[5] = system: rats; assay: Learned helplessness studies; type: in vivo, rat
From the text: Nomura S. et al., Studies on animal model of depression: review and perspective, Review, Yakubutsu Seishin Kodo, 1989 December; 9(4):349-58.
TT001 was used in learned helplessness studies in rats.

[6] = system: dogs; assay: Toxicological studies in dogs, maximum 52 weeks, gavage; type: in vivo, dog; details: dogs, 2, 6, 7 or 31 mg/kg by gavage, after 52 weeks
Procedure: Toxicological studies for TT001 in dogs, were performed on dogs using 2, 6, 7 or 31 mg/kg, for a maximum of 52 weeks. The dogs were fed with gavage throughout this period and blood samples were taken throughout the period.
Balcome at al Contemporary Topics 2004 by the American Association for Laboratory Animal Science. Vol 43. […] In addition, the animals are separated and live in small areas which further increase the stress.

[7] = Dissolution of TT001 in I.V. formulation vehicle; type: physicochemical; details: 0.1-10 mg/mL in 40% w/v HPβCD in water for injection; a couple of hours for complete dissolution
Procedure: Formulation Method for the Preparation of TT001 for I.V. Dosing, 0.1 to 10 mg/ml
The formulation method is applicable at concentrations in formulation between 0.1 and 10 mg/mL corresponding to 0.262 and 26.2 μmol/mL
Preparation of 40% w/v HPβCD solution in water for injection
Preparation of TT001 I.V. formulations between 0.1 and 10 mg/ml

[8] = system: TLESR; details: healthy volunteers, cited from earlier work
[9] = system: humans; details: cited from earlier work
[10] = system: dogs; details: cited from earlier work
[11] = cat or dog undergoing elective castration or ovariohysterectomy
[12] = group 2 (TT001 pre-medication) vs group 1
[13] = group 2 (TT001 + meloxicam) vs group 1 (meloxicam)

SMILES: CN1CC(=O)NC1=NC(=O)Nc1cccc(Cl)c1 [Fenobam]
- stress-induced hyperthermia (SIH) ([1]; 10 mg/kg): significantly reversed
- stress-induced hyperthermia (SIH) ([1]; 30 mg/kg): significantly reversed

SMILES: C[C@@H](Oc1nnc(-c2ccncc2)n1C)c1cc(-c2cccc(Cl)c2)on1 [TT001, 4-[5-[(1R)-1-[5-(3-Chlorophenyl)-3-isoxazolyl]ethoxy]-4-methyl-4H-1,2,4-triazol-3-yl]pyridine]
- effect on duration of the recovery period [2, 11]: positive effect
- cortisol values ([2]; group 2 (TT001) vs commonly used anesthesia protocol): Lower
- Time to extubation ([2]; group 2 (TT001 added as pre-medication) vs group 1 (acepromazine, pethidine; meloxicam after surgery)): shorter
- Time to lifting the head after surgery [2, 12]: shorter
- Time to raising from the bed after surgery [2, 12]: shorter
- Time to start of spontaneous/voluntary urination after surgery [2, 12]: shorter
- Time to starting to eat after surgery [2, 12]: shorter
- nausea [2, 12]: Less
- effect on duration for the recovery period [3, 11]: positive effect
- Time to extubation [3, 13]: shorter
- Time to lifting the head after surgery [3, 13]: shorter
- Time to raising from the bedding after surgery [3, 13]: shorter
- Time to start of spontaneous/voluntary urination after surgery [3, 13]: shorter
- Time to starting to eat after surgery [3, 13]: shorter
- cortisol values [3, 13]: Lower
- nausea [3, 13]: Less
- time in intensive care/PACU unit [3, 13]: Less
- Immobility duration ([4]; TT001 3 μmol/kg): 51.15 ± 7.788 ^a sec
- Immobility duration ([4]; TT001 10 μmol/kg): 47.45 ± 11.45 ^a sec
- Immobility duration ([4]; TT001 30 μmol/kg): 44.83 ± 4.693 ^a sec
- signs of gastric ulcer or changes in mucosa ([4]; test animals of the mouse Forced Swim Test): none of the test animals had signs of gastric ulcer
- Escape Failures, Day 4 Mean ([5]; 1.8 μmol/kg, vehicle 11.1): 2.2
- Escape Failures, Day 3 Mean ([5]; 1.8 μmol/kg, vehicle 23.2): 6.9
- Escape Failures, Total Day 3 + Day 4 ([5]; 1.8 μmol/kg, vehicle 34.25, p < 0.05 vs vehicle): 9.1 ^a
- stomach ulcers ([5]; learned helplessness studies): did not appear
- signs of gastric ulcer [6]: none of the animals showed signs of gastric ulcer
- dissolution [7]: moderate
- effect on TLESR ([8]; 13 mg (about 0.19 mg/kg), 2 to 3 hours after food-intake): some effect
- side effects ([8]; high doses of 13 mg): Some serious side effects
- effect on reflux ([8]; prior to food intake and 1-2 hours after food intake): no significant effect
- effect on anxiety ([9]; humans): no effect
- clinical effect in all indications (chronic pain, anxiety, GERD) ([9]; man, oral, clinical development discontinued): lack of effect

SMILES: COc1cccc(C2(O)CCCCC2CN(C)C)c1 (centres unmarked) [Tramadol]
- pain killer effect [10]: not present
